Reference: BindingDB's records for doi:10.7270/Q2N014XN (Srmlsc, 2007)
Where a name gives a salt, the structure may show the parent alone.

The compounds below were run against T1, Diphosphomevalonate decarboxylase (Streptococcus pneumoniae serotype 2 (strain D39 / NCTC 7466), UniProt A0A0H2ZN59) (assay: S. pneumoniae DPM-DC inhibitor potency, dose response, biochemical, PK/LDH-coupled NADH fluorescence, hexokinase coupling counter-screen (AID 550)). Conditions: not given.
T1 sequence (A0A0H2ZN59 whole entry): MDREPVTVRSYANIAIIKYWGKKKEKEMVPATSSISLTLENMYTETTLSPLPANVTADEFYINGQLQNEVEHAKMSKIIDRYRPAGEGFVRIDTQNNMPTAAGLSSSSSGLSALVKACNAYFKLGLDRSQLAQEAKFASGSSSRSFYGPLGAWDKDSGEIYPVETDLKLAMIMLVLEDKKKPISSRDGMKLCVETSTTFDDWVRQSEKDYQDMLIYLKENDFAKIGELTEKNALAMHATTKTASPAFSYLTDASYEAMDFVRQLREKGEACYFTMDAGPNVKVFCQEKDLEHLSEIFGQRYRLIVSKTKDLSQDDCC

SMILES | IC50 [µM]
Cc1c(C(=O)NCc2ccc3c(c2)OCO3)sc2nc(-c3ccccc3)cn12 [3-methyl-6-phenyl-N-piperonyl-imidazo[2,1-b]thiazole-2-carboxamide] | > 10000
CC(C)CC(=O)NCC(C)NC(=O)CC(C)C (stereo unspecified) [3-methyl-N-[2-(3-methylbutanoylamino)propyl]butanamide] | > 10000
Cc1ccccc1Cc1c(C)nc2c(C(=O)N3CCN(Cc4ccc5c(c4)OCO5)CC3)cnn2c1C [3-{[4-(1,3-benzodioxol-5-ylmethyl)piperazin-1-yl]carbonyl}-5,7-dimethyl-6-(2-methylbenzyl)pyrazolo[1,5-a]pyrimidine] | > 10000
COc1cc(NC(=O)c2cccs2)c(C(=O)OCC(=O)NCc2ccco2)cc1OC [4,5-dimethoxy-2-(2-thenoylamino)benzoic acid [2-(2-furfurylamino)-2-keto-ethyl] ester] | > 10000
COC(=O)c1cc(OC)c(OC)cc1NC(=O)c1oc2ccccc2c1C [4,5-dimethoxy-2-[(3-methylbenzofuran-2-carbonyl)amino]benzoic acid methyl ester] | > 10000
Cc1cnc(SCCc2ccncc2)nc1C [4,5-dimethyl-2-(2-pyridin-4-ylethylsulfanyl)pyrimidine;hydrochloride] | > 10000
CCOC(=O)c1c(Nc2nc(C)c(C(=O)NC)s2)sc(C)c1C [4,5-dimethyl-2-[[4-methyl-5-(methylcarbamoyl)-2-thiazolyl]amino]-3-thiophenecarboxylic acid ethyl ester] | > 10000
COc1ccccc1NC(=O)C1=C(C)N=C2CCCC(=O)C2C1c1ccc2c(c1)OCO2 (stereo unspecified) [4-(1,3-benzodioxol-5-yl)-N-(2-methoxyphenyl)-2-methyl-5-oxo-4,6,7,8-tetrahydro-1H-quinoline-3-carboxamide] | 76.3
Cc1noc(C)c1CSc1nc2ccccc2s1 [4-(1,3-benzothiazol-2-ylsulfanylmethyl)-3,5-dimethyl-1,2-oxazole] | > 10000
Cn1c(-c2ccc(N)cc2)nc2ccccc21 [4-(1-methyl-2-benzimidazolyl)aniline] | > 10000
Cn1c(N2CCOCC2)nc(-c2ccccc2)c1-c1ccccc1 [4-(1-methyl-4,5-diphenyl-2-imidazolyl)morpholine] | 40.8
CCCCC(=O)Nc1ccc(C(N)=O)cc1 [4-(1-oxopentylamino)benzamide] | > 10000
Cc1cc(C)n2nc3nc(N4CCCCC4)nc(-c4ccco4)c3c2n1 [4-(2-furyl)-6,8-dimethyl-2-piperidin-1-ylpyrimido[4',5':3,4]pyrazolo[1,5-a]pyrimidine] | 111
COC(=O)c1cc(Cl)c(NS(=O)(=O)c2ccccc2)cc1OC [4-(benzenesulfonamido)-5-chloro-2-methoxy-benzoic acid methyl ester] | 32.2
CCOC(=O)N1CCN(C(=O)c2cn(CC)c3cc(N4CCN(C)CC4)c(F)cc3c2=O)CC1 [4-[1-ethyl-6-fluoro-4-keto-7-(4-methylpiperazino)quinoline-3-carbonyl]piperazine-1-carboxylic acid ethyl ester;hydrochloride] | 50.6
O=C(CN1CCCC1)N1CCCc2c1c(=O)oc1ccc(OCc3ccccc3)cc21 [4-[1-oxo-2-(1-pyrrolidinyl)ethyl]-9-phenylmethoxy-2,3-dihydro-1H-[1]benzopyrano[3,4-b]pyridin-5-one] | 24.7
COC(=O)c1cc2occc2n1CC(=O)Nc1ccc(OC)c(OC)c1OC [4-[2-keto-2-(2,3,4-trimethoxyanilino)ethyl]furo[3,2-b]pyrrole-5-carboxylic acid methyl ester] | > 10000
COc1ccccc1-c1nnc2sc(-c3ccc(N(C)C)cc3)nn12 [4-[3-(2-methoxyphenyl)-[1,2,4]triazolo[3,4-b][1,3,4]thiadiazol-6-yl]-N,N-dimethyl-aniline] | 16.3
CCOC(=O)N1CCN(C(=O)CCc2c(C)nc3c(c(C)nn3-c3ccc(C)c(C)c3)c2C)CC1 [4-[3-[1-(3,4-dimethylphenyl)-3,4,6-trimethyl-5-pyrazolo[3,4-b]pyridinyl]-1-oxopropyl]-1-piperazinecarboxylic acid ethyl ester] | 27.8
CCOC(=O)N1CCC(NC(=O)CSc2cc(=O)n(C)c3ccccc23)CC1 [4-[[2-[(1-methyl-2-oxo-4-quinolinyl)thio]-1-oxoethyl]amino]-1-piperidinecarboxylic acid ethyl ester] | 399
COC(=O)c1ccc(Nc2cc(C)nc(-c3ccccc3O)n2)cc1 [4-[[(2E)-2-(6-ketocyclohexa-2,4-dien-1-ylidene)-6-methyl-1H-pyrimidin-4-yl]amino]benzoic acid methyl ester] | 18.6
CCOc1ccc(C(=O)O)cc1OC [4-ethoxy-3-methoxy-benzoic acid] | > 10000

SMILES | IC50 [µM]
CCOC(=O)c1cc2c(=O)n(C)c3ccccc3c2s1 [4-keto-5-methyl-thieno[3,2-c]quinoline-2-carboxylic acid ethyl ester] | > 10000
Cc1cc(=O)oc2ccc(OCC(=O)N3CCC(C)CC3)cc12 [4-methyl-6-[2-(4-methyl-1-piperidinyl)-2-oxoethoxy]-1-benzopyran-2-one] | 213
O=C(NCc1cccnc1)c1ccc2c(=O)n(CCCN3CCCC3=O)c(=S)[nH]c2c1 [4-oxidanylidene-3-[3-(2-oxidanylidenepyrrolidin-1-yl)propyl]-N-(pyridin-3-ylmethyl)-2-sulfanylidene-1H-quinazoline-7-carboxamide] | > 10000
Cc1c2ccncc2c(C)c2c1[nH]c1ccccc12 [5,11-dimethyl-2H-pyrido[4,3-b]carbazole] | 119
COCCNC(=O)c1cnn2c(C(F)(F)F)cc(-c3ccc4c(c3)OCO4)nc12 [5-(1,3-benzodioxol-5-yl)-N-(2-methoxyethyl)-7-(trifluoromethyl)-3-pyrazolo[1,5-a]pyrimidinecarboxamide] | > 10000
Cc1c(C(=O)NC2CC2)oc2ccc(S(=O)(=O)N3CCCCCC3)cc12 [5-(1-azepanylsulfonyl)-N-cyclopropyl-3-methyl-2-benzofurancarboxamide] | > 10000
Cc1cccc(Nc2nnc(S)s2)c1C [5-(2,3-dimethylanilino)-3H-1,3,4-thiadiazole-2-thione] | 188
COc1ccc(-c2nnc(Nc3nc4c(OC)cccc4s3)o2)c(OC)c1 [5-(2,4-dimethoxyphenyl)-N-(4-methoxy-1,3-benzothiazol-2-yl)-1,3,4-oxadiazol-2-amine] | 6.62
Cc1ccccc1Cn1cc(NC(=O)c2cc3nc(-c4ccco4)cc(C(F)(F)F)n3n2)cn1 [5-(2-furanyl)-N-[1-[(2-methylphenyl)methyl]-4-pyrazolyl]-7-(trifluoromethyl)-2-pyrazolo[1,5-a]pyrimidinecarboxamide] | 31.4
COc1ccc(C2CC(c3cccc(C)c3)n3nc(N)nc3N2)cc1 (stereo unspecified) [5-(4-methoxyphenyl)-7-(3-methylphenyl)-1,5,6,7-tetrahydro-[1,2,4]triazolo[1,5-a]pyrimidin-2-amine] | > 10000
c1ccc(-c2nc3nonc3c3nc4ccccc4n23)cc1 [5-Phenyl-2-oxa-1,3,4,5a,10-pentaaza-cyclopenta[a]fluorene] | > 10000
COC(=O)c1cc(NCc2c(F)cccc2Cl)ccc1N1CCOCC1 [5-[(2-chloro-6-fluoro-benzyl)amino]-2-morpholino-benzoic acid methyl ester] | 80.4
COC(=O)c1ccc(COc2ccc3c4c(c(=O)oc3c2)CCC4)o1 [5-[(4-keto-2,3-dihydro-1H-cyclopenta[c]chromen-7-yl)oxymethyl]furan-2-carboxylic acid methyl ester] | 97.1
COc1cc(CNc2ccc(N3CCOCC3)c(C(=O)O)c2)ccc1OCC(N)=O [5-[[4-(2-amino-2-keto-ethoxy)-3-methoxy-benzyl]amino]-2-morpholino-benzoic acid] | 65.5
COc1ccc(NC(=O)c2nnn(Cc3ccc(SC)cc3)c2N)c(OC)c1 [5-amino-N-(2,4-dimethoxyphenyl)-1-[(4-methylsulfanylphenyl)methyl]triazole-4-carboxamide] | 28.5
CCOC(=O)c1cncc(NC(=O)c2ccccc2)c1 [5-benzamido-3-pyridinecarboxylic acid ethyl ester] | > 10000
O=C(Nc1ccc2nn(-c3ccccc3)nc2c1)c1ccc(Br)o1 [5-bromanyl-N-(2-phenylbenzotriazol-5-yl)furan-2-carboxamide] | 32.6
CSc1ncc(Cl)c(C(=O)Nc2nnc(SC)s2)n1 [5-chloranyl-2-methylsulfanyl-N-(5-methylsulfanyl-1,3,4-thiadiazol-2-yl)pyrimidine-4-carboxamide] | > 10000
COC(=O)c1[nH]c2ccc(Cl)cc2c1NC(=O)CCN1CCOCC1 [5-chloro-3-[[3-(4-morpholinyl)-1-oxopropyl]amino]-1H-indole-2-carboxylic acid methyl ester] | 149
CCc1ccc(S(=O)(=O)NCc2cn3ccsc3n2)s1 [5-ethyl-N-(6-imidazo[2,1-b]thiazolylmethyl)-2-thiophenesulfonamide] | > 10000
CCOC(=O)c1[nH]c2ccc(OC)cc2c1NC(=O)CN1CCN(c2ccccn2)CC1 [5-methoxy-3-[[1-oxo-2-[4-(2-pyridinyl)-1-piperazinyl]ethyl]amino]-1H-indole-2-carboxylic acid ethyl ester] | > 10000
Cc1nc(NCCN)c(C#N)c2c1COC(C)(C)C2 [6-(2-aminoethylamino)-3,3,8-trimethyl-1,4-dihydropyrano[3,4-c]pyridine-5-carbonitrile] | 73.8

Same assay, conditions: inactive by the depositor's call

SMILES | IC50 [µM]
CCN(CC)c1ccc(C=Nn2c(=S)[nH]nc(C)c2=O)cc1 [4-[[4-(diethylamino)phenyl]methylideneamino]-6-methyl-3-sulfanylidene-2H-1,2,4-triazin-5-one] | 20.2
Nc1cccc2c1C(=O)N(c1ccccc1)C2=O [4-azanyl-2-phenyl-isoindole-1,3-dione] | 60.5
